The source of these data is ChEMBL document CHEMBL1201862, “PubChem BioAssay data set” (2004).

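Briefly, cells in 96-well plates were exposed to five compound concentrations for 48 h, and endpoints were estimated by linear interpolation. GI50 marks 50% less growth.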 Active and inactive are the calls of the source. Cut-off read from the data, not from the text of the source: active = GI50 up to about 1.1 µM and inactive = higher.

Common to all, as to experiment: inhibition of tumour cell growth, NCI panel, 48 h
Assay [1] relates to DLD-1.
The test system of assay [2] is LXFL 529.
Assay [3] deals with KM-20L2.
Assay [4] deals with SNB-78.
Assay [5] deals with DMS-273.
The test system of assay [6] is XF498.
The test system of assay [7] is M19-MEL.
In assay [8] the test system is HOP-18.

As for `Cc1cc(NC(=O)NC(=O)c2ccccc2NC(=O)CN(C)C)ccc1Oc1ncc(Br)cn1`, the GI50 was 8.07 µM (inactive) in assay [1]; 13.1 µM (inactive) in assay [2]; 4.56 µM (inactive) in assay [3]; 19.2 µM (inactive) in assay [4]; 3.74 µM (inactive) in assay [5]; 19.7 µM (inactive) in assay [6]. Further, the GI50 in assay [7] is 36.8 µM (inactive).

On to `O=[N+]([O-])c1ccc(C(O)/C(=N/O)c2nc3ccc(Cl)cc3nc2O)cc1` (stereo unspecified), for which the GI50 in assay [1], in assay [2], in assay [3], in assay [5], in assay [6] and in assay [7] was > 100 µM (inactive) each time.

Consider `O=C1CCC2(CCC(=O)NC2=O)C(=O)N1`, for which the GI50 in assay [2], in assay [3], in assay [5], in assay [6] and in assay [7] was > 100 µM (inactive) each time.

Consider `CCOC(=O)/C([O-])=C(\C(=O)OCC)[n+]1c(C)n(C)c2ccccc21`, for which the GI50 in assay [1], in assay [2], in assay [3], in assay [4], in assay [5] and in assay [8] was > 100 µM (inactive) each time. Further, the GI50 in assay [7] was > 100 µM (inactive).

With `O=C(c1nc2ccccc2nc1O)C(O)c1ccco1` (stereo unspecified), the GI50 in assay [2] was 86.3 µM (inactive); in assay [3], 56.5 µM (inactive); in assay [4], > 100 µM (inactive); in assay [5] it was > 100 µM (inactive); in assay [6], > 100 µM (inactive); in assay [7], > 100 µM (inactive).

For `O=C1CC(c2c[nH]c3ccccc23)C(=O)N1c1ccccc1` (stereo unspecified), the GI50 in assay [1], in assay [2], in assay [3], in assay [4], in assay [5] and in assay [6] was > 100 µM (inactive) in each case. For the same molecule, the GI50 in assay [7] was > 100 µM (inactive).

As to `C=CCN1C2Cc3cc(OC)c(OC)cc3C1Cc1cc(OC)c(OC)cc12`, the GI50 in assay [1], in assay [2], in assay [3], in assay [4] and in assay [6] was > 100 µM (inactive) in each case.

Turning to `CCSC(=O)C1(C)OC2CCCCC2C1=O` (stereo unspecified), the GI50 in assay [1], in assay [2], in assay [3], in assay [4], in assay [5] and in assay [8] was > 100 µM (inactive) in each case. Besides, the GI50 in assay [7] is > 100 µM (inactive).

Turning to `O=c1c(Cl)c(Cl)cnn1CCCl`, the GI50 in assay [1] is 1.47 µM (inactive); in assay [2], 1.62 µM (inactive); in assay [3], 13 µM (inactive); in assay [4] it was 11.8 µM (inactive); in assay [5] it was 5.27 µM (inactive); in assay [6], 3 µM (inactive). Further, the GI50 in assay [7] was 2.67 µM (inactive).

Consider `CC(C)(CN1C(=O)C(Cl)=C(Cl)C1=O)CN1C(=O)C(Cl)=C(Cl)C1=O`, for which the GI50 in assay [1] is 3.38 µM (inactive); in assay [2], 6.5 µM (inactive); in assay [3], 16.6 µM (inactive); in assay [4] it was 19 µM (inactive); in assay [5], 6.92 µM (inactive); in assay [8], 19.4 µM (inactive). Also, the GI50 in assay [7] was 7.66 µM (inactive).

Turning to `C[N+](C)(Cc1ccc(NC(=O)CCCC(=O)ON2C(=O)CCC2=O)cc1)c1ccccc1`, the GI50 in assay [1] was < 0.01 µM (active); in assay [2] it was < 0.01 µM (active); in assay [3] it was < 0.01 µM (active); in assay [5], < 0.01 µM (active); in assay [8], < 0.01 µM (active); in assay [6] it was > 1 µM (active). Further, the GI50 in assay [7] is < 0.01 µM (active).
